These results are taken from patent US8273708B2, “Methods of treatment of ocular surface pathologies” (priority 2004, dated 2012).

Assay type in all cases: in vivo, rat
For series [1], the system named is corneal epithelial tight junctions. Briefly: Corneal tight junction permeability by surface biotinylation after benzalkonium chloride. The source says:
Images obtained by fluorescence of the external corneal surface in the rat after ex vivo avidin-fluorescein biotinylation of the whole eye by avidin-fluorescein following cryosection (6 μm) (external side of cornea facing up)
(§1) Animals: Four groups of male Wistar rats (Janvier, Le Genest St Isle, France), weighing 300-350 g were used: BAK+sodium carmellose, BAK+ML-7, PBS+sodium carmellose, PBS+ML-7; PBS and sodium carmellose being the solvents for benzalkonium (BAK) and ML-7, respectively.
(§2) ML-7 pretreatment: Animals received a local application of ML-7 (Sigma, France) 24 hours, 12 hours and 30 minutes before chemical induction of ocular inflammation. Thus, each eye was treated with 100 μg of ML-7 in 10 μl of eye drops (sodium carmellose 4 mg/0.4 ml) or with 10 μl of eye drops alone.
(§3) Inflammation induction: Thirty minutes after the third application of ML-7 or the eye drops alone, each eye was treated with 10 μl of 0.5% benzalkonium chloride (Sigma-Aldrich, Steinheim, Germany) in PBS or 10 μl of PBS alone. After 10 minutes, the eyes of all the rats were rinsed with 250 μl of sterile water.
(§4) Eye excision: Six hours after application of benzalkonium chloride or PBS, the animals were anesthetized with pentobarbital (80 mg/kg IP) (Ceva Santé Animale, Libourne, France), sacrificed by decapitation and the eyes were immediately excised to be frozen directly or after surface biotinylation (tight junction permeability test).
Measurement of tight junction permeability—Surface biotinylation: The permeability of tight junctions in the cornea was evaluated by biotinylation of surface proteins. The chosen biotinylation reagent is water-soluble and contains an aminocaproyl spacer group, which lowers steric hindrance during avidin coupling. Immediately after excision, the eyes were incubated for 30 minutes at room temperature with gentle stirring in a solution containing sodium biotinamidohexanecarboxylate and 3-sulfó-N-hydroxysuccinimide at 1 mg/mL, in PBS (Sigma-Aldrich, Steinheim, Germany). The eyes were then rinsed three times in PBS, embedded in protective tissue freezing medium (Tissue Tek® OCT compound, Sakura Finetek, Inc., CA, USA), frozen in liquid nitrogen and stored at −80° C. Six micrometer thick slices were prepared with a cryostat and fixed in cold acetone for 10 minutes. After drying, the slices were labelled for 30 minutes in the dark with avidin D-FITC (Vector Laboratories, Inc., Burlingame, Calif., USA) diluted 250-fold in PBS-Tween containing 1% BSA, then rinsed three times for 5 minutes in PBS-Tween, in the dark. The slides were then mounted in fluorescence medium (Cappel fluorostab embedding medium, MP Biomedicals, Inc., Aurora, Ohio, USA) and examined under a Nikon Eclipse 90 i fluorescence microscope equipped with a Nikon DXM1200F digital camera. The images were analyzed with Nikon Lucia image analysis software release 4.8. As no significant differences in corneal thickness were observed between the different experimental groups (102±10 μm, 110±9 μm, 115±13 μm and 124±8 μm for BAK+sodium carmellose, BAK+ML-7, PBS+sodium carmellose and PBS+ML-7 groups, respectively), the depth of fluorescence labelling reflects the permeability of external corneal epithelial tight junctions to the biotinylation reagent.

Series [2] deals with male Wistar rats. Briefly: Ocular inflammation (neutrophil infiltration) induced by corneal instillation of benzalkonium chloride: total MPO activity in the eye. How it is done: FIG. 3: Experimental protocol for example 2. Animals received two pretreatments with ML-7 [1 mg/kg given by the intraperitoneal (IP) route] on the day before instillation of 0.1% BAK (in the morning and evening) and one pretreatment two hours before instillation. They were sacrificed six hours after rinsing and the eyes were excised in order to assay MPO activity.
The benzalkonium salt (BAK) corneal irritation model has been widely used in both in vitro and in vivo studies. The protocol is based on an in vitro study (Xu et al., 2000) adapted to in vivo conditions in the rat after preliminary tests to adjust times and concentrations.
Animals: Male Wistar rats (200-250 g) housed in individual cages were used. Animals were given a standard diet (UAR, Villemoisson, Epinay sur Orge) and drinking water ad libitum.
Inflammation induction: Inflammation was induced by instillation in the eye of 10 μl of 0.1% BAK solution (1 mg/ml). The control eye was instilled with 10 μl of 1×PBS. Ten minutes after instillation, the eyes were rinsed with 1 ml of sterile water.
Assay of myeloperoxidase activity: The eyes were excised and homogenized in phosphate buffer with the aid of a polytron. They were then subjected to three freeze/thaw cycles (liquid nitrogen/37° C. water bath). After centrifugation at 10,000 rpm for 15 min at 4° C., the pellets were resuspended in HTAB buffer and sonicated for 10 sec. After a second centrifugation, MPO activity was assayed in the supernatant in a reaction buffer containing O-dianisidine hydrochloride and 0.0005% hydrogen peroxide. The change in absorbance at 460 nm was measured on a spectrophotometer.
Experimental protocol: Animals received two pretreatments with ML-7 (1 mg/kg IP) on the day before instillation of 0.1% BAK (morning and evening) and one pretreatment two hours before instillation. They were sacrificed six hours after rinsing and the eyes were excised in order to assay total myeloperoxidase (MPO) activity (FIG. 3).

The subject of series [3] is male Wistar rats. Briefly: Polynuclear eosinophil infiltration induced by benzalkonium chloride, Direct Red count in the venous plexus region of the sclera. The conditions noted are these: for number of polynuclear eosinophils in the venous plexus region of the sclera after benzalkonium chloride: 10 μl of 0.5% benzalkonium chloride, after six hours.
Text: Upper panel: histological images after Direct Red staining. Lower panel: eosinophil count in venous plexus of sclera, density per square mm (means±SD; n=8)
as §1, §2, §3, §4
Measurement of polynuclear eosinophil infiltration: Polynuclear eosinophil leukocytes were specifically stained with Direct Red and counted in the venous plexus region of the sclera. […] Eosinophils, stained bright pink against a light background, were counted in the venous plexus region of the sclera under a Nikon Eclipse 90 i microscope equipped with a Nikon DXM1200F digital camera. The area of the zone to be counted was determined with Nikon Lucia image analysis software release 4.8 and counts were expressed as the number of eosinophils per mm^2. […]

In series [4] the test system is male Wistar rats. Briefly: Ocular inflammation induced by corneal instillation of P48/80: total MPO activity in the whole eye. Particulars: ML-7 1 mg/kg IP, two pretreatments the day before and one two hours before instillation. How it is done: FIG. 1: Experimental protocol for example 1.
The corneal irritation model which was used has been validated in the rat (Allansmith et al., Acta Ophtalmol, 1989; 192S: 145-153) and in the rabbit (Bucolo et al., J. Ocul. Pharmacol, 1993; 9: 321-332).
Animals: Three groups of eight male Wistar rats (200-250 g) housed in individual cages were used. Animals were given a standard diet (UAR, Villemoisson, Epinay sur Orge) and drinking water ad libitum.
The control eye was instilled with 10 μl of 1×PBS.
Assay of myeloperoxidase activity: The eyes were excised and homogenized in phosphate buffer with the aid of a polytron. They were then subjected to three freeze/thaw cycles (liquid nitrogen/37° C. water bath). After centrifugation at 10,000 rpm for 15 min at 4° C., the pellets were resuspended in HTAB buffer and sonicated for 10 sec. After a second centrifugation, MPO activity was assayed from the supernatant in a reaction buffer containing O-dianisidine hydrochloride and 0.0005% hydrogen peroxide. The change in absorbance at 460 nm was measured on a spectrophotometer.
They were sacrificed six hours after instillation and the eyes were excised in order to assay total myeloperoxidase (MPO) activity in the whole eye (FIG. 1).

“Also recorded” adds a separate entry of the source.

Regarding benzalkonium chloride, in series [1] (10 μl of 0.5% benzalkonium chloride, after six hours), the “effect of benzalkonium chloride on corneal epithelial tight junctions (fluorescent penetration)” value is “opening of corneal epithelial tight junctions”. For the same molecule, in series [1] (BAK+sodium carmellose group), the corneal thickness is recorded as 102±10 μm. Besides, the “total MPO activity in the eye after benzalkonium chloride” value with male Wistar rats [2] (10 μl of 0.1% BAK, rinsed after 10 minutes, after six hours) is listed as 26.4±7.2 U/g.protein. Also, in the series with male Wistar rats [2] (versus baseline 8.2±1.9 U/g.protein, after six hours), the “increase in total MPO activity after benzalkonium chloride” value worked out at 321%. Besides, the “number of polynuclear eosinophils in the venous plexus region of the sclera after benzalkonium chloride” value was “highly significant increase” in the series on male Wistar rats [3] and “highly significant” in the series on male Wistar rats [3] (listed as BAK).

With `O=S(=O)(c1cccc2c(I)cccc12)N1CCCNCC1` [ML-7, 1-(5-iodonaphthalene-1-sulfonyl)-1H-hexahydro-1,4-diazepine], the corneal thickness in series [1] (BAK+ML-7 group) is reported as 110±9 μm; in series [1] (PBS+ML-7 group), 124±8 μm. Also, the “effect of ML-7 on the BAK-induced increase in diffusion and thickening of the fluorescent zone” value in series [1] (local pretreatment, 100 μg ML-7 per eye, 24 hours, 12 hours and 30 minutes before BAK) is “suppressed”. Further, in the series with male Wistar rats [2] (ML-7 1 mg/kg IP, two pretreatments the day before and one two hours before instillation), the “effect of ML-7 on the benzalkonium chloride-induced increase in MPO activity” value is “suppressed; also recorded: inhibited”. The “effect of ML-7 on benzalkonium chloride-induced polynuclear eosinophil infiltration” value in the series on male Wistar rats [3] (local application, 100 μg ML-7 in 10 μl eye drops, 24 hours, 12 hours and 30 minutes before BAK) was “significantly inhibited”. Besides, the “effect of ML-7 on the P48/80-induced increase in MPO activity” value in the series on male Wistar rats [4] is given as “prevented; also recorded: inhibited”.
